Patent US12036226B2, “Methods of treating subjects having diabetes with chronic kidney disease” (Poxel SA, priority 2018, dated 2024)

Test system: acute renal failure (ARF) rat model
Conditions: for plasma glucose: normal rats, 180 minutes, imeglimin and metformin 100 mg/h/kg, phenformin 50 mg/h/kg i.v.
Experimental: The creatinine level, correlated with the degree of the renal function failure, was tested for each rat 7 days after the first injection of gentamicin. […] The creatinine level was determined on the Monarch Chemistry Systems using the IL Test creatinine in rat plasma samples. This monochromatic analysis is based on the formation of a red colored complex between creatinine and picric acid under alkaline conditions.

CN(C)C(=N)N=C(N)N [metformin]
plasma glucose: 4 ± 0.7 mmol/L
effect on plasma [HCO3−] (rat, in vivo): significantly decreased plasma concentration of [HCO3^−]
effect on plasma lactate (rat, in vivo): significantly increased plasma lactate
effect on plasma lactate level (rat, in vivo): significantly increased lactatemia
lactic acidosis (rat, in vivo): induced lactic acidosis
plasma H+ concentration / metabolic acidosis signs (rat, in vivo): increased significantly plasma H+ concentration
plasma accumulation (rat, in vivo): plasma accumulation of metformin and imeglimin was observed
plasma glucose after sharp fall (rat, in vivo): 1.9 ± 1 mmol/L

[H]/N=C(/N)N/C(=N/[H])NCCc1ccccc1 [phenformin]
plasma glucose: 2.9 ± 1 mmol/L
effect on plasma [HCO3−] (rat, in vivo): significantly decreased plasma concentration of [HCO3^−]
effect on plasma lactate (rat, in vivo): significantly increased plasma lactate
effect on plasma lactate level (rat, in vivo): significantly increased lactatemia
lactic acidosis (rat, in vivo): induced lactic acidosis
plasma H+ concentration / metabolic acidosis signs (rat, in vivo): increased significantly plasma H+ concentration
plasma glucose after sharp fall (rat, in vivo): 2.4 ± 1.1 mmol/L
